{
  "source": "patent US11655247B2",
  "about": "“Nanoluc suicide substrates” (PROMEGA CORPORATION, priority 2018, dated 2023)",
  "system": "NanoLuc-HaloTag",
  "assay": "Direct and two-step labeling with azide-DBCO pair, fluorescence imaging on SDS/PAGE gel",
  "format": "biochemical",
  "details": "50 uM compound 1 hour, then 100 uM DBCO-FAM 4 hours",
  "experimental": "In Example 26, a dye-appended suicide substrate is shown by fluorescence imaging to label NanoLuc. In this example, a suicide substrate with an appended azide is shown to label a NanoLuc-HaloTag protein in a two-step procedure in which the second step is copper-free click chemistry with a DBCO appended FAM dye. […] Structures of the compounds used in this example are illustrated in FIG. 10A.\n0.5 uM NanoLuc-HaloTag in 100 mM Tris pH 8.0 was incubated for 1 hour with 50 uM of: Tube 1—JRW-1505; Tube 2—FAM-HaloTag ligand; Tube 3—JRW-0926; Tube 4—JRW-0975; Tube 5—JRW-1022; and Tube 6—SE-azide. In the second step, 100 uM DBCO-FAM was incubated for 4 hours in Tubes 1, 4, 5, and 6, followed by SDS/PAGE gel for all samples (FIG. 10B). The fluorescence (473ex) (Cy2 filter set) of bands corresponding to the size of NanoLuc-HaloTag was read and quantified.\nIn a second experiment, 1.5 uM NanoLuc-HaloTag in 100 mM Tris (or DPBS buffer) pH 8.0 was incubated with 50 uM of JRW-0975, FAM-HaloTag ligand, JRW-0926, JRW-1022, or SE-azide for 1 hour. In the second step, 100 uM DBCO-FAM was incubated for 4 hours with tubes 3, 4, and 5, followed by SDS/PAGE gel (FIG. 11A). The fluorescence (473ex) (Cy2 filter set) of bands corresponding to the size of NanoLuc-HaloTag was read and quantified (FIG. 11B).",
  "data": [
    {"smiles": "[N-]=[N+]=NCCOCCOCCC(=O)NCCOCCOCCCCCCCl", "note": "[JRW-1505, 3-(2-(2-azidoethoxy)ethoxy)-N-(2-(2-((6-chlorohexyl)oxy)ethoxy)ethyl)propanamide]", "values": [
      {"measurement": "Two-step labeling with DBCO-FAM", "value": "two-step labeling occurs"}
    ]}
  ]
}
